Source: PubChem BioAssay (NCI)
Values joined by “and” are separate entries in the source; they are usually repeats but may differ in a detail not shown here. Identical values can stand only once.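 1) Cells in 96-well plates. 2) Compound, 48 h, 5 concentrations. 3) Linear interpolation between surrounding doses. 4) Unreached endpoint = highest concentration. GI50 = concentration required for 50% inhibition of growth. TGI marks complete inhibition of growth.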

Columns and labels:
Assay in all cases: growth of human tumour cells (NCI), 48 h
SF-268 CNS = system: SF-268 CNS
MOLT-4 leukemia = system: MOLT-4 leukemia
SK-OV-3 ovarian = system: SK-OV-3 ovarian
HCT-15 colon = system: HCT-15 colon
CAKI-1 renal = system: CAKI-1 renal
DU-145 prostate = system: DU-145 prostate
MDA-N = system: MDA-N
NCI-H522 lung = system: NCI-H522 lung
ACHN renal = system: ACHN renal
MCF7 breast = system: MCF7 breast
U251 CNS = system: U251 CNS

CCCCCCCCCN1CCC(=O)C(C(=O)OC)C1 (centres undefined)
TGI (SF-268 CNS): 30.2 µM | TGI (MOLT-4 leukemia): 54.6 µM | TGI (SK-OV-3 ovarian): 31.1 µM | TGI (HCT-15 colon): 26.9 µM | TGI (CAKI-1 renal): 29.2 µM | TGI (DU-145 prostate): 29.3 µM | TGI (MDA-N): 29.5 µM | TGI (NCI-H522 lung): 22 µM | TGI (ACHN renal): 21 µM | TGI (MCF7 breast): 24.9 µM

COc1cc2c(c(OC)c1OC)C(=O)CC2N (centres undefined)
TGI (SF-268 CNS): > 100 µM | TGI (U251 CNS): > 100 µM | TGI (MOLT-4 leukemia): > 100 µM | TGI (SK-OV-3 ovarian): > 100 µM | TGI (HCT-15 colon): > 100 µM | TGI (CAKI-1 renal): > 100 µM | TGI (NCI-H522 lung): > 100 µM | TGI (ACHN renal): > 100 µM | TGI (MCF7 breast): > 100 µM

O=C(O)CCC1(c2ccccc2)NC(=O)NC1=O (centres undefined)
TGI (SF-268 CNS): > 100 µM | TGI (U251 CNS): > 100 µM | TGI (SK-OV-3 ovarian): > 100 µM | TGI (HCT-15 colon): > 100 µM | TGI (CAKI-1 renal): > 100 µM | TGI (DU-145 prostate): > 100 µM | TGI (MDA-N): > 100 µM | TGI (NCI-H522 lung): > 100 µM | TGI (ACHN renal): > 100 µM | TGI (MCF7 breast): > 100 µM

Nc1ccn(C2OC(COP(=O)(O)Oc3ccccc3)C(O)C2O)c(=O)n1 (centres undefined)
TGI (SF-268 CNS): > 100 µM | TGI (U251 CNS): > 100 µM | TGI (MOLT-4 leukemia): > 100 µM | TGI (SK-OV-3 ovarian): > 100 µM | TGI (HCT-15 colon): > 100 µM | TGI (CAKI-1 renal): > 100 µM | TGI (NCI-H522 lung): > 100 µM | TGI (MCF7 breast): > 100 µM

CC(C)[Si]1(C(C)C)OCC2OC(n3ccc(=O)[nH]c3=O)C(O)(CO)C2O[Si](C(C)C)(C(C)C)O1 (centres undefined)
TGI (SF-268 CNS): 27.8 µM | TGI (U251 CNS): 30.1 µM | TGI (MOLT-4 leukemia): 69.1 µM | TGI (SK-OV-3 ovarian): 30.2 µM | TGI (HCT-15 colon): 36.2 µM | TGI (CAKI-1 renal): 29.6 µM | TGI (DU-145 prostate): 32.4 µM | TGI (ACHN renal): 30.8 µM | TGI (MCF7 breast): 29.2 µM

O=C(NCc1ccccc1)c1cnc(Cl)cn1
TGI (SF-268 CNS): > 100 µM | TGI (U251 CNS): > 100 µM | TGI (MOLT-4 leukemia): > 100 µM | TGI (SK-OV-3 ovarian): > 100 µM | TGI (HCT-15 colon): 82.4 µM | TGI (CAKI-1 renal): 33 µM | TGI (DU-145 prostate): > 100 µM | TGI (NCI-H522 lung): 4.35 µM | TGI (ACHN renal): 44.1 µM | TGI (MCF7 breast): > 100 µM

Cc1nc(-c2nc([N+](=O)[O-])c([N+](=O)[O-])[nH]2)cs1
TGI (SF-268 CNS): > 100 µM | TGI (U251 CNS): > 100 µM | TGI (MOLT-4 leukemia): > 100 µM | TGI (SK-OV-3 ovarian): > 100 µM | TGI (CAKI-1 renal): > 100 µM | TGI (NCI-H522 lung): > 100 µM | TGI (ACHN renal): > 100 µM

CC(C)(C)OC(=O)N1CCC23CCCC2C(=O)CC=C13 (centres undefined)
TGI (SF-268 CNS): > 100 µM | TGI (U251 CNS): > 100 µM | TGI (MOLT-4 leukemia): > 100 µM | TGI (SK-OV-3 ovarian): > 100 µM | TGI (HCT-15 colon): > 100 µM | TGI (CAKI-1 renal): > 100 µM | TGI (DU-145 prostate): > 100 µM | TGI (NCI-H522 lung): > 100 µM | TGI (ACHN renal): > 100 µM | TGI (MCF7 breast): > 100 µM

O=C(CCN1CCCC1)Nc1ccc2c(NCCCc3ccccc3)c3ccccc3nc2c1
GI50 (U251 CNS): 1.04 µM | TGI (U251 CNS): 2.36 µM | GI50 (HCT-15 colon): 2.62 µM | TGI (HCT-15 colon): 10.5 µM | GI50 (CAKI-1 renal): 14.8 µM | TGI (CAKI-1 renal): 28 µM | GI50 (DU-145 prostate): 0.886 µM | TGI (DU-145 prostate): 2.09 µM | GI50 (NCI-H522 lung): 0.664 µM | TGI (NCI-H522 lung): 2.15 µM | GI50 (ACHN renal): 1.42 µM | TGI (ACHN renal): 2.8 µM | GI50 (MCF7 breast): 0.467 µM | TGI (MCF7 breast): 1.8 µM

CC(=O)Oc1c(OC(C)=O)c(-c2ccc(O)c(O)c2)c(O)c(O)c1-c1ccc(O)cc1
GI50 (SF-268 CNS): 80.6 µM | TGI (SF-268 CNS): > 100 µM | TGI (U251 CNS): > 100 µM | GI50 (MOLT-4 leukemia): 53.6 µM | TGI (MOLT-4 leukemia): > 100 µM | TGI (SK-OV-3 ovarian): > 100 µM | GI50 (HCT-15 colon): 76.3 µM | TGI (HCT-15 colon): > 100 µM | TGI (CAKI-1 renal): > 100 µM | GI50 (NCI-H522 lung): 20.1 µM | TGI (NCI-H522 lung): 45.2 µM and 33 µM | GI50 (MCF7 breast): 18.8 µM | TGI (MCF7 breast): 35.9 µM and > 100 µM

Cc1ccc(/C=N/Nc2ncccn2)s1
TGI (SF-268 CNS): > 100 µM | TGI (U251 CNS): > 100 µM | TGI (SK-OV-3 ovarian): > 100 µM | TGI (HCT-15 colon): > 100 µM | TGI (CAKI-1 renal): > 100 µM | TGI (MDA-N): > 100 µM | TGI (NCI-H522 lung): > 100 µM | TGI (ACHN renal): > 100 µM | TGI (MCF7 breast): > 100 µM
